Values of other authors as cited in article PMC7511286 (European Journal of Drug Metabolism and Pharmacokinetics, 2020).

What was measured:
[1] = hepatocytes across different species; ref data on file; cited from earlier work
[2] = free acid, multiple-dose phase 1 study; cited from earlier work
stimulated immune cells = details: cited from earlier work
[3] = tested on: human mitochondrial enzyme dihydroorotate dehydrogenase (DHODH); details: cited from earlier work
CYP2C9 = details: human liver microsomes, recombinant enzymes; ref data on file; cited from earlier work
CYP2C8 = details: human liver microsomes, recombinant enzymes; ref data on file; cited from earlier work

COc1cccc(-c2ccc(NC(=O)C3=C(C(=O)O)CCC3)c(F)c2)c1 [vidofludimus]
number of metabolites identified [1]: eight
daily dose at which cases of hematuria occurred [2]: 70 mg
inhibition of IL-17 and IFN-γ release (stimulated immune cells): very potent inhibitor
inhibition of DHODH [3]: potent and selective inhibitor
contribution of CYP isoform to metabolism (CYP2C9): smaller contributions
contribution of CYP isoform to metabolism (CYP2C8): predominant hepatic CYP isoform
